Legend:
Assay in all cases: relative viability (nuclei count vs DMSO), 5 days (fraction); higher = more cells survive
AZ505 + Phenformin = compound: C1CCC(CC1)N(CCNCCC2=C3C(=C(C=C2)O)NC(=O)CO3)C(=O)CCNCCC4=CC(=C(C=C4)Cl)Cl [AZ505] + N=C(N)NC(=N)NCCc1ccccc1 [Phenformin] (partner 250 µM)
Outline: (§1)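 Lung cancer cell lines were seeded in 1536-well plates and dosed by pin tool the next day, with either a single drug or a fixed anchor-drug dose combined with five library-drug doses (not always all listed) spaced in √10 steps. Five days later, one step fixed the cells and stained their nuclei (final 0.05% Triton X-100, 1% formaldehyde, 1 ug/ml Hoechst), and nuclei were counted on 4× images. Relative viability is the nuclei count in treated wells divided by the count in vehicle wells, and each value is the median of duplicate plates.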

Dactolisib + Vorinostat = compound: Cn1c(=O)n(-c2ccc(C(C)(C)C#N)cc2)c2c3cc(-c4cnc5ccccc5c4)ccc3ncc21 [Dactolisib] + O=C(CCCCCCC(=O)Nc1ccccc1)NO [Vorinostat] (partner 1 µM)
Outline: as §1

Dactolisib + Pictilisib = compound: Cn1c(=O)n(-c2ccc(C(C)(C)C#N)cc2)c2c3cc(-c4cnc5ccccc5c4)ccc3ncc21 [Dactolisib] + CS(=O)(=O)N1CCN(Cc2cc3nc(-c4cccc5[nH]ncc45)nc(N4CCOCC4)c3s2)CC1 [Pictilisib] (partner 1 µM)
Outline: as §1

Dactolisib + Trametinib = compound: Cn1c(=O)n(-c2ccc(C(C)(C)C#N)cc2)c2c3cc(-c4cnc5ccccc5c4)ccc3ncc21 [Dactolisib] + CC(=O)Nc1cccc(-n2c(=O)n(C3CC3)c(=O)c3c(Nc4ccc(I)cc4F)n(C)c(=O)c(C)c32)c1 [Trametinib] (partner 0.02 µM)
Outline: as §1

Cell Line	relative viability (AZ505 + Phenformin; first compound 0.08 µM)	relative viability (AZ505 + Phenformin; first compound 0.253 µM)	relative viability (AZ505 + Phenformin; first compound 0.8 µM)	relative viability (AZ505 + Phenformin; first compound 2.53 µM)	relative viability (AZ505 + Phenformin; first compound 8 µM)	relative viability (Dactolisib + Vorinostat; first compound 0.002 µM)	relative viability (Dactolisib + Vorinostat; first compound 0.006325 µM)	relative viability (Dactolisib + Vorinostat; first compound 0.02 µM)	relative viability (Dactolisib + Vorinostat; first compound 0.06325 µM)	relative viability (Dactolisib + Vorinostat; first compound 0.2 µM)	relative viability (Dactolisib + Pictilisib; first compound 0.002 µM)	relative viability (Dactolisib + Pictilisib; first compound 0.006325 µM)	relative viability (Dactolisib + Pictilisib; first compound 0.02 µM)	relative viability (Dactolisib + Pictilisib; first compound 0.06325 µM)	relative viability (Dactolisib + Pictilisib; first compound 0.2 µM)	relative viability (Dactolisib + Trametinib; first compound 0.002 µM)	relative viability (Dactolisib + Trametinib; first compound 0.006325 µM)	relative viability (Dactolisib + Trametinib; first compound 0.02 µM)	relative viability (Dactolisib + Trametinib; first compound 0.06325 µM)	relative viability (Dactolisib + Trametinib; first compound 0.2 µM)
COR-L 105	0.451	0.454	0.547	0.473	0.583	0.677	0.88	0.828	0.402	0.394	0.423	0.364	0.377	0.332	0.305	0.43	0.413	0.4	0.425	0.394
NCI-H2405	0.278	0.214	0.31	0.218	0.263	1.09	1.02	0.839	0.391	0.277	0.343	0.475	0.423	0.311	0.278	0.469	0.665	0.56	0.389	0.253
NCI-H1395	0.435	0.461	0.426	0.483	0.479	0.423	0.622	0.554	0.496	0.467	0.64	0.611	0.569	0.525	0.446	0.867	0.889	0.93	0.637	0.487
NCI-H661	0.285	0.261	0.288	0.328	0.296	0.773	0.766	0.71	0.455	0.391	0.468	0.406	0.389	0.377	0.251	0.552	0.483	0.486	0.336	0.337
NCI-H1915	0.339	0.38	0.345	0.375	0.354	0.556	0.487	0.531	0.402	0.453	1.01	0.952	0.944	0.513	0.483	0.32	0.296	0.304	0.229	0.178
CAL-12T	0.473	0.531	0.553	0.525	0.649	0.798	0.913	0.722	0.209	0.199	0.407	0.408	0.358	0.251	0.254	0.343	0.312	0.248	0.213	0.184
SK-LU-1	0.353	0.345	0.33	0.394	0.379	0.766	0.697	0.671	0.448	0.321	0.48	0.547	0.484	0.432	0.211	0.476	0.657	0.392	0.34	0.283
LXF-289	0.488	0.491	0.512	0.509	0.514	0.879	0.789	0.741	0.815	0.565	0.9	0.851	0.749	0.673	0.613	0.709	0.629	0.633	0.559	0.379

From the supplement of paper PMC10307832
